Measurements as given in article PMC6222718, “Ethylenediamine Derived Carboxamides of Betulinic and Ursolic Acid as Potential Cytotoxic Agents” (Molecules : A Journal of Synthetic Chemistry and Natural …, 2018).

Key:
[1] = system: 518A2 (melanoma); assay: SRB cytotoxicity assay, 518A2; assay type: cell-based, human; conditions: for EC50: Homo sapiens, SRB assay, 96 h of treatment, 518A2; for Selectivity index (SI) 518A2: SI = EC50 (NIH 3T3)/EC50 (518A2)
Experimental: (§1) The cytotoxicity of ursolic and betulinic carboxamides 3–30 was determined in sulforhodamine B (SRB) assays.
(§2) The cell lines used were human cancer cell lines: 518A2 (melanoma), A2780 (ovarian carcinoma), HT29 (colon adenocarcinoma), MCF-7 (breast adenocarcinoma), 8505C (thyroid carcinoma) and non-malignant mouse fibroblasts NIH 3T3. Cultures were maintained as monolayers in RPMI 1640 medium with L-glutamine (Capricorn Scientific GmbH, Ebsdorfergrund, Germany) supplemented with 10% heat inactivated fetal bovineserum (Sigma-Aldrich Chemie GmbH, Steinheim, Germany) and penicillin/streptomycin (Capricorn Scientific GmbH, Ebsdorfergrund, Germany) at 37 °C in a humidified atmosphere with 5% CO2.
(§3) The cytotoxicity of the compounds was evaluated using the sulforhodamine-B (Kiton-Red S, ABCR) micro culture colorimetric assay. Cells were seeded into 96-well plates on day 0 at appropriate cell densities to prevent confluence of the cells during the period of experiment. After 24 h, the cells were treated with 6 different concentrations (1, 3, 7, 12, 20 and 30 µM) minimum. The final concentration of DMSO/DMF never exceeded 0.5%, which was non-toxic to the cells. After a 96 h treatment, the supernatant medium from the 96-well plates was discarded, the cells were fixed with 10% trichloroacetic acid (TCA) and allowed to rest at 4 °C. After 24 h fixation, the cells were washed in a strip washer and dyed with SRB solution (100 µL, 0.4% in 1% acetic acid) for about 20 min. After dying, the plates were washed four times with 1% acetic acid to remove the excess of the dye and allowed to air-dry overnight. Tris base solution (200 µL, 10 mM) was added to each well and absorbance was measured at λ = 570 nm using a 96-well plate reader (Tecan Spectra, Crailsheim, Germany). The EC50 values were averaged from three independent experiments performed each in triplicate calculated from semi logarithmic dose response curves applying a non-linear 4P Hills-slope equation (GraphPad Prism5; variables top and bottom were set to 100 and 0, respectively).

[2] = system: A2780 (ovarian carcinoma); assay: SRB cytotoxicity assay, A2780; assay type: cell-based, human; conditions: for EC50: Homo sapiens, SRB assay, 96 h of treatment, A2780; for Selectivity index (SI) A2780: SI = EC50 (NIH 3T3)/EC50 (A2780)
Experimental: as §1, §2, §3

[3] = system: HT29 (colon adenocarcinoma); assay: SRB cytotoxicity assay, HT29; assay type: cell-based, human; conditions: for EC50: Homo sapiens, HT-29, SRB assay, 96 h of treatment, HT29; for Selectivity index (SI) HT29: SI = EC50 (NIH 3T3)/EC50 (HT29)
Experimental: as §1, §2, §3

[4] = system: MCF-7 (breast adenocarcinoma); assay: SRB cytotoxicity assay, MCF-7; assay type: cell-based, human; conditions: for EC50: Homo sapiens, MCF7, SRB assay, 96 h of treatment, MCF-7; for Selectivity index (SI) MCF-7: SI = EC50 (NIH 3T3)/EC50 (MCF-7)
Experimental: as §1, §2, §3

[5] = system: 8505C (thyroid carcinoma); assay: SRB cytotoxicity assay, 8505C; assay type: cell-based, human; conditions: for EC50: Homo sapiens, SRB assay, 96 h of treatment, 8505C; for Selectivity index (SI) 8505C: SI = EC50 (NIH 3T3)/EC50 (8505C)
Experimental: as §1, §2, §3

[6] = system: non-malignant mouse fibroblasts NIH 3T3; assay: SRB cytotoxicity assay, NIH 3T3; assay type: cell-based; conditions: NIH3T3, 96 h of treatment
Experimental: as §1, §2, §3

SMILES	EC50 [1] [nM]	Selectivity index (SI) 518A2 [1]	EC50 [2] [nM]	Selectivity index (SI) A2780 [2]	EC50 [3] [nM]	Selectivity index (SI) HT29 [3]	EC50 [4] [nM]	Selectivity index (SI) MCF-7 [4]	EC50 [5] [nM]	Selectivity index (SI) 8505C [5]	EC50 [6] [nM]	melting point
C=C(C)C1CC[C@]2(C(=O)NCCN(C)C)CC[C@]3(C)C(CCC4[C@@]5(C)CC[C@H](OC(C)=O)C(C)(C)C5CC[C@]43C)C12 (stereo partly drawn) [Compound 18, (3β)-N-[2-(Dimethylamino)ethyl]-3-acetyloxy-lup-20(29)-en-28-amide]	1300 ± 100	0.77	1100 ± 50	0.91	300 ± 20	3.33	1000 ± 300	1.00	1400 ± 150	0.71	1000 ± 400	108 to 110 °C
C=C(C)C1CC[C@]2(C(=O)NCCN3CCCC3)CC[C@]3(C)C(CCC4[C@@]5(C)CC[C@H](OC(C)=O)C(C)(C)C5CC[C@]43C)C12 (stereo partly drawn) [Compound 19, (3β)-N-(2-Pyrrolidin-1-ylethyl)-3-acetyloxy-lup-20(29)-en-28-amide]	1500 ± 100	0.80	1400 ± 90	0.86	500 ± 80	2.40	1200 ± 200	1.00	1600 ± 90	0.75	1200 ± 70	143 to 145 °C
C=C(C)C1CC[C@]2(C(=O)NCCN3CCCCC3)CC[C@]3(C)C(CCC4[C@@]5(C)CC[C@H](OC(C)=O)C(C)(C)C5CC[C@]43C)C12 (stereo partly drawn) [Compound 20, (3β)-N-(2-Piperidin-1-ylethyl)-3-acetyloxy-lup-20(29)-en-28-amide]	3100 ± 300	0.39	1600 ± 200	0.75	800 ± 100	1.50	1500 ± 500	0.80	3000 ± 360	0.40	1200 ± 200	124 to 127 °C
C=C(C)C1CC[C@]2(C(=O)NCCN3CCNCC3)CC[C@]3(C)C(CCC4[C@@]5(C)CC[C@H](OC(C)=O)C(C)(C)C5CC[C@]43C)C12 (stereo partly drawn) [Compound 21, (3β)-N-(2-Piperazin-1-ylethyl)-3-acetyloxy-lup-20(29)-en-28-amide]	2500 ± 700	0.40	1500 ± 60	0.67	600 ± 300	1.67	1900 ± 100	0.53	1100 ± 90	0.91	1000 ± 50	107 to 110 °C
C=C(C)C1CC[C@]2(C(=O)NCCCCN)CC[C@]3(C)C(CCC4[C@@]5(C)CC[C@H](OC(C)=O)C(C)(C)C5CC[C@]43C)C12 (stereo partly drawn) [Compound 22, (3β)-N-(4-Aminobutyl)-3-acetyloxy-lup-20(29)-en-28-amide]	1000 ± 30	0.60	1100 ± 30	0.55	600 ± 50	1.00	800 ± 40	0.75	1400 ± 50	0.43	600 ± 40	133 to 135 °C
C=C(C)C1CC[C@]2(C(=O)NCCOCCN)CC[C@]3(C)C(CCC4[C@@]5(C)CC[C@H](OC(C)=O)C(C)(C)C5CC[C@]43C)C12 (stereo partly drawn) [Compound 23, (3β)-N-[2-(2-Aminoethoxy)ethyl]-3-acetyloxy-lup-20(29)-en-28-amide]	1900 ± 10	0.53	1500 ± 100	0.67	400 ± 100	2.50	1400 ± 200	0.71	2200 ± 810	0.45	1000 ± 100	109 to 112 °C
C=C(C)C1CC[C@]2(C(=O)NCCN3CCNCC3)CC[C@]3(C)C(CCC4[C@@]5(C)CC[C@H](O)C(C)(C)C5CC[C@]43C)C12 (stereo partly drawn) [Compound 28, (3β)-N-(2-Piperazin-1-ylethyl)-3-hydroxy-lup-20(29)-en-28-amide]	900 ± 210	0.89	800 ± 40	1.00	800 ± 180	1.00	300 ± 20	2.67	850 ± 170	0.94	800 ± 220	146 to 148 °C (dec.)
C=C(C)C1CC[C@]2(C(=O)NCCCCN)CC[C@]3(C)C(CCC4[C@@]5(C)CC[C@H](O)C(C)(C)C5CC[C@]43C)C12 (stereo partly drawn) [Compound 29, (3β)-N-(4-Aminobutyl)-3-hydroxy-lup-20(29)-en-28-amide]	400 ± 60	1.25	600 ± 100	0.83	400 ± 100	1.25	600 ± 100	0.83	800 ± 260	0.63	500 ± 100	130 to 133 °C
C=C(C)C1CC[C@]2(C(=O)NCCOCCN)CC[C@]3(C)C(CCC4[C@@]5(C)CC[C@H](O)C(C)(C)C5CC[C@]43C)C12 (stereo partly drawn) [Compound 30, (3β)-N-[2-(2-Aminoethoxy)ethyl]-3-hydroxy-lup-20(29)-en-28-amide]	500 ± 40	0.80	500 ± 40	0.80	500 ± 70	0.80	400 ± 200	1.00	200 ± 10	2.00	400 ± 70	182 to 183 °C
